Results taken from patent US8901038B2, “Biphenyl-substituted cyclic ketoenols” (Bayer CropScience AG, priority 2010, dated 2014).

Key:
[1] = tested on: caterpillars of the armyworm (Spodoptera frugiperda); assay: Spodoptera frugiperda test (SPODFR spray treatment); format: in vivo; settings: application rate 500 g/ha; maize leaf discs sprayed; after 7 days
Description: Spodoptera frugiperda Test (SPODFR Spray Treatment)
(§1) • Solvents: 78.0 parts by weight of acetone • 1.5 parts by weight of dimethylformamide • Emulsifier: 0.5 part by weight of alkylaryl polyglycol ether
To produce a suitable preparation of active compound, 1 part by weight of active compound is mixed with the stated amounts of solvent and emulsifier, and the concentrate is diluted with emulsified water to the desired concentration. Discs of maize leaves (Zea mays) are sprayed with an active compound preparation of the desired concentration and, after drying, populated with caterpillars of the armyworm (Spodoptera frugiperda).
After 7 days, the effect in % is determined. 100% means that all caterpillars have been killed; 0% means that none of the caterpillars have been killed.

[2] = tested on: green peach aphid (Myzus persicae); assay: Myzus test (MYZUPE spray treatment); format: in vivo; settings: application rate 500 g/ha; Chinese cabbage leaf discs sprayed; after 6 days
Description: Myzus Test (MYZUPE Spray Treatment)
• Solvents: 78 parts by weight of acetone • 1.5 parts by weight of dimethylformamide • Emulsifier: 0.5 part by weight of alkylaryl polyglycol ether
To produce a suitable preparation of active compound, 1 part by weight of active compound is mixed with the stated amounts of solvent and emulsifier, and the concentrate is diluted with emulsifier-containing water to the desired concentration. Discs of Chinese cabbage (Brassica pekinensis) which are infested by all stages of the green peach aphid (Myzus persicae) are sprayed with an active compound preparation of the desired concentration. After 6 days, the effect in % is determined. 100% means that all aphids have been killed; 0% means that none of the aphids have been killed.

Boophilus microplus = Boophilus microplus test (BOOPMI injection); format: in vivo; settings: application rate 20 μg/animal; injection into the abdomen; after 7 days
Description: Boophilus microplus Test (BOOPMI Injection)
(§2) • Solvent: Dimethyl sulphoxide
To produce a suitable preparation of active compound, 10 mg of active compound are mixed with 0.5 ml of solvent and the concentrate is diluted with solvent to the desired concentration. The solution of active compound is injected into the abdomen (Boophilus microplus) and the animals are transferred into dishes and stored in a climatized room. The efficacy is monitored for deposition of fertile eggs.
After 7 days, the effect in % is determined. 100% means that none of the ticks has laid any fertile eggs.

Lucilia cuprina larvae = assay: Lucilia cuprina test (LUCICU); format: in vivo; settings: application rate 100 ppm; treated horse meat; after 2 days
Description: Lucilia cuprina test (LUCICU)
as §2
To produce a suitable preparation of active compound, 10 mg of active compound are mixed with 0.5 ml of dimethyl sulphoxide and the concentrate is diluted with water to the desired concentration. Containers containing horse meat treated with the active compound preparation of the desired concentration are populated with about 20 Lucilia cuprina larvae.
After 2 days, the kill in % is determined. 100% means that all larvae have been killed; 0% means that none of the larvae have been killed.

Meloidogyne incognita = Meloidogyne incognita test (MELGIN); format: in vivo; settings: application rate 20 ppm; lettuce roots; after 14 days
Description: Meloidogyne incognita Test (MELGIN)
as §1
To produce a suitable preparation of active compound, 1 part by weight of active compound is mixed with the stated amounts of solvents and emulsifier, and the concentrate is diluted with water to the desired concentration. Containers are filled with sand, solution of active compound, Meloidogyne incognita egg/larvae suspension and lettuce seeds. The lettuce seeds germinate and the plants develop. On the roots, galls are formed. After 14 days, the nematicidal activity is determined in % by the formation of galls. 100% means that no galls are found; 0% means that the number of galls on the treated plants corresponds to that of the untreated controls.

[3] = tested on: greenhouse red spider mite (Tetranychus urticae); assay: Tetranychus test; OP-resistant (TETRUR spray treatment); format: in vivo; settings: application rate 100 g/ha; bean leaf discs sprayed; after 6 days
Description: Tetranychus Test; OP-Resistant (TETRUR Spray Treatment)
as §1
To produce a suitable preparation of active compound, 1 part by weight of active compound is mixed with the stated amounts of solvent and emulsifier, and the concentrate is diluted with emulsifier-containing water to the desired concentration. Discs of bean leaves (Phaseolus vulgaris), which are infested by all stages of the greenhouse red spider mite (Tetranychus urticae) are sprayed with an active compound preparation of the desired concentration.
After 6 days, the effect in % is determined. 100% means that all spider mites have been killed; 0% means that none of the spider mites have been killed.

[4] = tested on: larvae of the mustard beetle (Phaedon cochleariae); assay: Phaedon test (PHAECO spray treatment); format: in vivo; settings: application rate 500 g/ha; Chinese cabbage leaf discs sprayed; after 7 days
Description: Phaedon Test (PHAECO Spray Treatment)
as §1
To produce a suitable preparation of active compound, one part by weight of active compound is mixed with the stated amounts of solvents and emulsifier, and the concentrate is diluted with emulsifier-containing water to the desired concentration. […].
After 7 days, the effect in % is determined. 100% means that all beetle larvae have been killed; 0% means that none of the beetle larvae have been killed.

[5] = Source text: Use is made of leaves which, fully developed, are cut from apple trees of the cultivar Golden Delicious.
Only the cuticles, free from hairs and stoma, of the upper sides of the leaves are then used. They are washed repeatedly alternating with water and a buffer solution of pH 7. The clean cuticles obtained are then mounted on Teflon plates and smoothed and dried with a gentle stream of air.
In the next step, the cuticle membranes obtained in this manner are placed into stainless steel diffusion cells (=transport chambers) for membrane transport studies. To this end, the cuticles are placed with a pincette into the centre of the edges, coated with silicone fat, of the diffusion cells and closed with a ring, which is also treated with fat. The arrangement is chosen such that the morphological outside of the cuticles is facing outwards, i.e. exposed to air, whereas the original inside is facing the interior of the diffusion cell.
The diffusion cells are filled with a 30% strength ethylene glycol/water solution. To determine the penetration, in each case 10 μl of the spray liquor of the composition below are applied to the outside of the cuticles. The spray liquor is prepared using local tap water of medium hardness.
After the application of the spray liquors, the water is allowed to evaporate and the chambers are inverted and placed into thermostatic tubs in which temperature and atmospheric humidity over the cuticles can be adjusted using a gentle stream of air onto the cuticles with the spray coating (35° C., 60% rh).

Cc1ccc(-c2ccc(Cl)cc2)c(Cl)c1C1=C(O)C2(CCOCC2)NC1=O [Example I-1-a-11]
efficacy (caterpillars killed) [1]: 83% | efficacy (aphids killed) [2]: 100% | efficacy (deposition of fertile eggs) (Boophilus microplus): 90% | efficacy (kill of larvae) (Lucilia cuprina larvae): 100% | efficacy (nematicidal activity by formation of galls) (Meloidogyne incognita): > 80% | efficacy (spider mites killed) [3]: 100%

CCON1CCC2(CC1)NC(=O)C(c1c(CC)ccc(-c3ccc(Cl)cc3)c1CC)=C2O [Example I-1-a-25]
efficacy (aphids killed) [2]: 100% | efficacy (beetle larvae killed) [4]: 100% | efficacy (spider mites killed) [3]: 100% | Penetration after 48 h/% EC + AS (0.7 g/l) [5]: 2% | Penetration after 48 h/% EC + RME (1 g/l) [5]: 4% | Penetration after 48 h/% EC + RME (1 g/l) + AS (0.7 g/l) [5]: 10%

Cc1ccc(-c2ccc(F)cc2)c(Cl)c1C1=C(O)C2(CCOCC2)NC1=O [Example I-1-a-12]
efficacy (caterpillars killed) [1]: 100% | efficacy (aphids killed) [2]: 100% | efficacy (deposition of fertile eggs) (Boophilus microplus): 95% | efficacy (kill of larvae) (Lucilia cuprina larvae): 100% | efficacy (beetle larvae killed) [4]: 100% | efficacy (spider mites killed) [3]: 100%

COC1CCC2(CC1)NC(=O)C(c1c(Cl)ccc(-c3ccc(F)cc3)c1C)=C2O (stereo not drawn) [Example I-1-a-14]
efficacy (caterpillars killed) [1]: 100% | efficacy (aphids killed) [2]: 100% | efficacy (deposition of fertile eggs) (Boophilus microplus): 95% | efficacy (kill of larvae) (Lucilia cuprina larvae): 100% | efficacy (beetle larvae killed) [4]: 100% | efficacy (spider mites killed) [3]: 90%
